Data taken from ChEMBL document CHEMBL1147440, “Pyrazino[1,2-a]indoles as novel high-affinity and selective imidazoline I(2) receptor ligands” (Bioorg Med Chem Lett, 2004).

What was measured:
[1] = Displacement of [3H]2-BFI from imidazoline receptor I-2; set-up: species or system Rattus norvegicus
[2] = target: T1, Adrenergic receptor alpha-2 (Rattus norvegicus, UniProt P22086+P19328+P22909); assay: Displacement of [3H]RX-821002 from alpha-2 adrenergic receptor; assay type: protein assay
T1 sequence (P22086 whole entry): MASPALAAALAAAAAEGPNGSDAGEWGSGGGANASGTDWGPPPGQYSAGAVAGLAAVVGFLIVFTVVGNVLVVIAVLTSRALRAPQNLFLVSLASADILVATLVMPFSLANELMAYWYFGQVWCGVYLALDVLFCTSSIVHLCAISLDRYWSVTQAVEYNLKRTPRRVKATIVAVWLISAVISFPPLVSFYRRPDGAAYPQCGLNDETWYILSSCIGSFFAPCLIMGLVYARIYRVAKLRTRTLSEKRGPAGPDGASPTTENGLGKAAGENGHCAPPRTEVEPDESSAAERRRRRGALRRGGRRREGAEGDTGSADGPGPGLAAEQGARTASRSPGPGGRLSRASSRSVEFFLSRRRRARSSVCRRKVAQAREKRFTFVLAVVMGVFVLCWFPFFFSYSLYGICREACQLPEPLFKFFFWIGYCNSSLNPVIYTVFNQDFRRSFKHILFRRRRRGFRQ
T1 sequence (P19328 whole entry): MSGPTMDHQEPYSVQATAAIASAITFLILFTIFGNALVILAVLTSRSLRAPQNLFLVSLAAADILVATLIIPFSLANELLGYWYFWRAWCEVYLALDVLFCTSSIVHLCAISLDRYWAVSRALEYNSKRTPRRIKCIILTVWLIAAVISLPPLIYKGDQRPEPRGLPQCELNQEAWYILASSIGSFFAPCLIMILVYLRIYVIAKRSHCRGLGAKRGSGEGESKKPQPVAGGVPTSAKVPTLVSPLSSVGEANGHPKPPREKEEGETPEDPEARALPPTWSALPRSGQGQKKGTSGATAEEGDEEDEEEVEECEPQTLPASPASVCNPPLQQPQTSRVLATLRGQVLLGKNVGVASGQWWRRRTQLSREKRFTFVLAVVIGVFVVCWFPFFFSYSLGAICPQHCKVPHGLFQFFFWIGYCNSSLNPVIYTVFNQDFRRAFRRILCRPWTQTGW
T1 sequence (P22909 whole entry): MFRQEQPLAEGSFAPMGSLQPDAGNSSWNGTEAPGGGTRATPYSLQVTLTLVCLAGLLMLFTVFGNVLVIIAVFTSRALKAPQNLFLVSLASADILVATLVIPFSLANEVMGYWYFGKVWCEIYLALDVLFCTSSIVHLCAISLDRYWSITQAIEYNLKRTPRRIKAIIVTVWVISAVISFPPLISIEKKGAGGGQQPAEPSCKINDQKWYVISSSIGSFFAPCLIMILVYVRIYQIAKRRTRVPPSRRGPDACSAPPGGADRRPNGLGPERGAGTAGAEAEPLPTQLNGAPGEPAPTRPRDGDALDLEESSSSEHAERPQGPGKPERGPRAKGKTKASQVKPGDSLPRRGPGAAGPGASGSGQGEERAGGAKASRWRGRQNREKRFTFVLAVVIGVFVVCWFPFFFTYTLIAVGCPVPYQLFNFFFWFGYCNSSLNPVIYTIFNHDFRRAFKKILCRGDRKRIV

[3] = target: 5-hydroxytryptamine receptor 2A (Rattus norvegicus, UniProt P14842); assay: Binding affinity for 5-hydroxytryptamine 2A serotonin receptor
Sequence of 5-hydroxytryptamine receptor 2A (P14842 whole entry): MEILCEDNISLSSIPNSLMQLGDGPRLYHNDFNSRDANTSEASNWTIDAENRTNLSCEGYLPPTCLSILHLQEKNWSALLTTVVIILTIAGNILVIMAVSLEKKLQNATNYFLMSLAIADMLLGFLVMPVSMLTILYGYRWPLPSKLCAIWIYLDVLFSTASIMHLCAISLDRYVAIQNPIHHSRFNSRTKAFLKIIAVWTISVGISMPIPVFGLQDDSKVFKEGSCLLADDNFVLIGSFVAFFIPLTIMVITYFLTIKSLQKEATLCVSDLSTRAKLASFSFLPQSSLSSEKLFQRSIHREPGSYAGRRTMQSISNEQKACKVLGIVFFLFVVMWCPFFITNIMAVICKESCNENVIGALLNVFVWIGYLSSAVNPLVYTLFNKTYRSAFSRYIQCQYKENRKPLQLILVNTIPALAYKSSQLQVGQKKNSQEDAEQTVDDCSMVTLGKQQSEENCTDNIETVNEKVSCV

| Structure (SMILES) | Ki [1] [nM] | Ki [2] [nM] | IC50 [1] [nM] | Ki [3] [nM] |
| --- | --- | --- | --- | --- |
| COc1ccc2[nH]c3c(c2c1)CCNC3 | 1640 | – | – | – |
| C1=NCCc2c1[nH]c1ccccc21 | 7.3 | – | – | – |
| c1ccc2c3c([nH]c2c1)C1=NCCN1CC3 | 9910 | 1600 | – | – |
| COc1ccc2[nH]c3c(c2c1)CCN=C3 | 480 | – | – | – |
| COc1ccc2c3c([nH]c2c1)C=NCC3 [CGS-19281A] | 18 | – | – | – |
| c1ccc2c3c([nH]c2c1)CNCC3 [TRYPTOLINE] | 9.4 | 1600 | – | – |

Next, values leading:

| Ki [1] [nM] | Ki [2] [nM] | IC50 [1] [nM] | Ki [3] [nM] | Structure (SMILES) |
| --- | --- | --- | --- | --- |
| 6.2 | 9550 | 8280 | 9930 | COc1ccc2c(c1)cc1n2CCNC1 |
| < 10 | – | – | – | c1ccc2oc(C3=NCCN3)cc2c1 |
| 250 | 4510 | – | – | COc1ccc2cc3n(c2c1)CCNC3 |
| 6.5 | 516 | – | – | c1ccc2c(c1)cc1n2CCNC1 |
| 6790 | 13400 | – | – | c1ccc2c(c1)nc1n2CCNC1 |
